Reference: patent US11998546B2, “Pharmaceutical combinations comprising a histone deacetylase inhibitor and epothilone and methods of use thereof” (ACETYLON PHARMACEUTICALS, INC., priority 2016, dated 2024)

What was measured:
[1] = system: TOV-21G cells; assay: Multipolar spindle formation in TOV-21G cells (DAPI, NuMA, α-tubulin staining); format: cell-based; settings: 24 hours, 2 μM Compound B combined with 0.5 nM epothilone B vs single agents
Experimental: The cells were then stained with DAPI (to label DNA) and antibodies for α-tubulin and the spindle pole marker NuMA.
Cells in mitosis were then manually counted and scored for the presence of normal bipolar spindles or abnormal multipolar spindles. The frequency of cells with multipolar spindles was determined and scored in at least 100 cells from each treatment condition.

[2] = system: TOV-21G cells; assay: Cell proliferation of TOV-21G cells, crystal violet staining; format: cell-based; settings: seven days, Compound B (2 μM) and/or epothilone B (4 nM)
Experimental: The cells were then stained with crystal violet (hexamethyl pararosaniline chloride) dye. The crystal violet dye was extracted in 10% v/v acetic acid, and absorbance was measured in triplicate at a wavelength of 540 nm on a spectrophotometer (FIG. 2B).

For O=C(CCCCCCNC(=O)c1cnc(N(c2ccccc2)c2ccccc2Cl)nc1)NO [Compound B, 2-((2-chlorophenyl)(phenyl)amino)-N-(7-(hydroxyamino)-7-oxoheptyl)pyrimidine-5-carboxamide], the “frequency of cells with multipolar mitotic spindles” value [1] was “enhanced the multipolar spindle formation induced by epothilone” and the “inhibition of tumor cell proliferation (crystal violet absorbance at 540 nm)” value [2] was “inhibition of tumor cell proliferation by Epotholine B was enhanced”.
